Values after ≈ are worked out from the molar mass of the structure shown.
Columns and labels:
B. cenocepacia = settings: J. Antimicrob. Chemother., 2002, 50, 265-269; cited from earlier work
P. aeruginosa = settings: J. Antimicrob. Chemother., 1999, 43, 345-349; cited from earlier work
[1] = tested on: multidrug-resistant bacteria P. aeruginosa; assay: Inhibition of P. aeruginosa growth in solution culture; format: cell-based, Pseudomonas aeruginosa; settings: overnight at 37° C., shaking 250 rpm; AgNO3 180 μM
Method: Other than DNA-based surface chemistry, the size-dependent controlled-release of Ag^+ from the DNA-templated AgNCs (sub-2nm) were also compared with the citrate-capped silver nanoparticles (AgNPs, 15 nm) and AgNO3 (free flow of Ag^+) against bacterial growth under the same experimental conditions. AgNPs were synthesized based on the Turkevich method whereby an aqueous solution of trisodium citrate was brought to boil, followed by addition of AgNO3 aq solution (310 μM). The reaction was then boiled till a yellow solution was obtained. For the AgNO3, 180 μM of AgNO3 was used for this example.

human A549 cells = assay: WST-1 cytotoxicity assay; format: cell-based; settings: compared at 44 μM, 4 hours at 37° C.
Method: The cytotoxicity of the silver-containing species were tested against human A549 cells (from the lungs) using the WST-1 Assay (manufactured by Roche). The silver-bearing species were diluted to different extents and allowed to incubate with the human cells at 37° C. for 4 hours. In the presence of dead cells, the enzymatic assay gave a pink coloured solution (as shown by the box in FIG. 4A), while the living cells gave a brown solution (cells that are outside the box region in FIG. 4A).
The percentage of human dead cells can be quantified spectroscopically by measuring the optical density of the solution at a wavelength of 440 nm. To examine the antimicrobial potency and cytotoxicity of silver in different formulations (AgNPs, DNA-templated AgNCs and AgNO3), the percentage of bacteria cells inhibited (y-axis representing the antibacterial potency) was plotted against the percentage of human A549 cells killed (x-axis representing the eukaryotic cytotoxicity) in FIG. 4B. Here, the relative percentages of human A549 cells killed were compared at a concentration of 44 μM for all silver-containing species.

Row | SMILES | MIC50 (B. cenocepacia) [µM] | MIC50 (P. aeruginosa) [µM] | P. aeruginosa growth inhibited [1] | cytotoxicity to human A549 cells (human A549 cells)
1 | O=C(O)c1cn(C2CC2)c2cc(N3CCNCC3)c(F)cc2c1=O [ciprofloxacin] | 0.36 (≈ 0.119 µg/mL) | 0.27 (≈ 0.0895 µg/mL) | – | –
2 | O=[N+]([O-])[O-].[Ag+] [AgNO3] | – | – | up to 97% | high toxicity
